Results taken from ChEMBL document CHEMBL3739265, “Synthesis and biological evaluation of negative allosteric modulators of the Kv11.1(hERG) channel” (Eur J Med Chem, 2015).

Experiments:
[1] = biological target: T1, Voltage-gated inwardly rectifying potassium channel KCNH2 (Homo sapiens, UniProt Q12809); experiment: Allosteric modulation of Kv11.1 channel (unknown origin) expressed in HEK293 cells assessed as shift of inhibition constant for astemizole-induced displacement of [3H]-dofetilide binding at 10 uM after 1 hr relative to control; format: cell-based; settings: hek293, 1 h
[2] = biological target: T1, Voltage-gated inwardly rectifying potassium channel KCNH2; experiment: Allosteric modulation of Kv11.1 channel (unknown origin) expressed in HEK293 cells assessed as shift of inhibition constant for dofetilide-induced displacement of [3H]-dofetilide binding at 10 uM after 1 hr relative to control; format: cell-based; settings: hek293, 1 h
[3] = biological target: Kv11.1 (KCNH2, hERG) potassium channel (Homo sapiens, UniProt Q12809); experiment: Allosteric modulation of [3H]-dofetilide binding at Kv11.1 channel (unknown origin) expressed in HEK293 cells at 10 uM after 6 mins by scintillation spectrometer analysis relative to control; format: cell-based; settings: HEK293 cells expressing Kv11.1 channel, probe [3H]-dofetilide, read-out: Activity
[4] = biological target: T1, Voltage-gated inwardly rectifying potassium channel KCNH2; experiment: Induction of dissociation of [3H]-dofetilide from Kv11.1 channel (unknown origin) assessed as dissociation rate expressed in HEK293 cells at 50 uM after 1 hr relative to control; format: cell-based; settings: hek293, 1 h
[5] = biological target: T1, Voltage-gated inwardly rectifying potassium channel KCNH2; experiment: Induction of dissociation of [3H]-dofetilide from Kv11.1 channel (unknown origin) assessed as dissociation rate expressed in HEK293 cells after 1 hr; format: cell-based
[6] = biological target: T1, Voltage-gated inwardly rectifying potassium channel KCNH2; experiment: Binding affinity to Kv11.1 channel (unknown origin)

T1 sequence (Q12809 whole entry): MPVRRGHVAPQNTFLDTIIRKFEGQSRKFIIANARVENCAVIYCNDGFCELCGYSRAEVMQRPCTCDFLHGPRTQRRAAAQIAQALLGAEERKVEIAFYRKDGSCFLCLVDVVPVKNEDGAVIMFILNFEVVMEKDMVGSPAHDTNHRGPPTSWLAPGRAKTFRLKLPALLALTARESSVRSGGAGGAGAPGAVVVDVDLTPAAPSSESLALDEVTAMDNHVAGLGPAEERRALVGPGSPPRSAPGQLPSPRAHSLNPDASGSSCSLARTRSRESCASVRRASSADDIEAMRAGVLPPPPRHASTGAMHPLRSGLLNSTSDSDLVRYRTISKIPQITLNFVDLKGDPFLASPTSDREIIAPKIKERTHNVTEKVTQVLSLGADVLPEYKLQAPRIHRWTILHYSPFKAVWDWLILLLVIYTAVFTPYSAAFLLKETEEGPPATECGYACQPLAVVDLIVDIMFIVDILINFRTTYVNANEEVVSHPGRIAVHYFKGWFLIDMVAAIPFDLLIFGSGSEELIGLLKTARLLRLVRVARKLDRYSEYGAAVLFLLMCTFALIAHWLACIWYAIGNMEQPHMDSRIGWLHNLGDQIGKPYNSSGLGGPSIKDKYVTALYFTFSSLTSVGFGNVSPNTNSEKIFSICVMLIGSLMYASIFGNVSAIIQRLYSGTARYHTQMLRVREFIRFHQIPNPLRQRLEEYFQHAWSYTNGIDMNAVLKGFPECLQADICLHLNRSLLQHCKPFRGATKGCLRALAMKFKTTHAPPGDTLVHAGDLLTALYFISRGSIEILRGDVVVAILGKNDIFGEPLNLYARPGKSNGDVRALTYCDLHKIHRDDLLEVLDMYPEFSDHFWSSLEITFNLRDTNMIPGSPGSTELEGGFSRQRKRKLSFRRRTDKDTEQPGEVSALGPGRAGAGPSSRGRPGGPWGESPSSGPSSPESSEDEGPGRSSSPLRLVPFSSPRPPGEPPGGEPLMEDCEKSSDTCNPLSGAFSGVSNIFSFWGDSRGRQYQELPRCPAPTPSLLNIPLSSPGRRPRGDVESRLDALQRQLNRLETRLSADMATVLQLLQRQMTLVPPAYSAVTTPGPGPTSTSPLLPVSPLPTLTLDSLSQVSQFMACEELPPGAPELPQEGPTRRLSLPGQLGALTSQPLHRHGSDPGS
Sequence of Kv11.1 (KCNH2, hERG) potassium channel (Q12809 whole entry): as above

O=C(COc1ccc(C(=O)c2cccc(Br)c2)cc1)Nc1cccnc1
fold change (FC) [1]: 1.4 | fold change (FC) [2]: 1.4 | activity at 0.1 h, 10 µM [3]: 57% | fold change (FC) [4]: 1.4

O=C(COc1ccc(C(=O)c2ccccc2)cc1)Nc1cccnc1
activity at 0.1 h, 10 µM [3]: 78%

O=C(COc1ccc(C(=O)c2ccccc2Br)cc1)Nc1cnccn1
activity at 0.1 h, 10 µM [3]: 92%

O=C(COc1ccc(C(=O)c2ccccc2Br)cc1)Nc1ccc(Cl)nc1
activity at 0.1 h, 10 µM [3]: 95%

O=C(COc1ccc(C(=O)c2ccccc2F)cc1)Nc1cccnc1
activity at 0.1 h, 10 µM [3]: 85%

Cc1ccc(C(=O)c2ccc(OCC(=O)Nc3cccnc3)cc2)cc1
activity at 0.1 h, 10 µM [3]: 97%

O=C(COc1ccc(C(=O)c2cc(F)ccc2Br)cc1)Nc1cccnc1
EC50 [5]: 4.6 µM | fold change (FC) [1]: 6.3 | fold change (FC) [2]: 4.6 | activity at 0.1 h, 10 µM [3]: 38% | fold change (FC) [4]: 4.1

O=C(COc1ccc2c(c1)-c1ccccc1C2=O)Nc1cccnc1
activity at 0.1 h, 10 µM [3]: 79%

COc1ccc(NC(=O)COc2ccc(C(=O)c3ccccc3Br)cc2)cn1
activity at 0.1 h, 10 µM [3]: 124%

COc1cncc(NC(=O)COc2ccc(C(=O)c3ccccc3Br)cc2)c1
activity at 0.1 h, 10 µM [3]: 107%

O=C(COc1ccc(C(=O)c2ccc(Cl)cc2)cc1)Nc1cccnc1
activity at 0.1 h, 10 µM [3]: 104%

COc1ccncc1NC(=O)COc1ccc(C(=O)c2ccccc2Br)cc1
activity at 0.1 h, 10 µM [3]: 105%

O=C(COc1ccc(C(=O)c2cccc(F)c2)cc1)Nc1cccnc1
fold change (FC) [1]: 1.9 | fold change (FC) [2]: 1.9 | activity at 0.1 h, 10 µM [3]: 47% | fold change (FC) [4]: 1.6

O=C(COc1ccc(C(=O)c2cccc(I)c2)cc1)Nc1cccnc1
activity at 0.1 h, 10 µM [3]: 62%

O=C(COc1ccc(C(=O)c2ccccc2)cc1Br)Nc1cccnc1
activity at 0.1 h, 10 µM [3]: 96%

Cc1cncc(NC(=O)COc2ccc(C(=O)c3ccccc3Br)cc2)c1
activity at 0.1 h, 10 µM [3]: 121%

Cc1ccc(NC(=O)COc2ccc(C(=O)c3ccccc3Br)cc2)cn1
activity at 0.1 h, 10 µM [3]: 105%

O=C(COc1ccc2ccccc2c1Br)Nc1cccnc1
activity at 0.1 h, 10 µM [3]: 66% | Ki [6]: 0.0048 µM

O=C(COc1ccc(C(=O)c2ccccc2I)cc1)Nc1cccnc1
activity at 0.1 h, 10 µM [3]: 72%

O=C(COc1ccc(C(=O)c2ccccc2Br)cc1)Nc1cccnc1
EC50 [5]: 12 µM | fold change (FC) [1]: 4.1 | fold change (FC) [2]: 2.5 | activity at 0.1 h, 10 µM [3]: 44% | fold change (FC) [4]: 3

O=C(COc1ccc(C(=O)c2ccccc2Br)cc1)Nc1ccc(Cl)nn1
activity at 0.1 h, 10 µM [3]: 92%

Cc1ccncc1NC(=O)COc1ccc(C(=O)c2ccccc2Br)cc1
activity at 0.1 h, 10 µM [3]: 108%

O=C(COc1ccc(C(=O)c2ccccc2Br)cc1)Nc1cncnc1
activity at 0.1 h, 10 µM [3]: 87%

O=C(COc1ccc(C(=O)c2cccc(Cl)c2)cc1)Nc1cccnc1
fold change (FC) [1]: 2.8 | fold change (FC) [2]: 3.3 | activity at 0.1 h, 10 µM [3]: 43% | fold change (FC) [4]: 1.7

O=C(COc1ccc(C(=O)c2cccc(F)c2Br)cc1)Nc1cccnc1
activity at 0.1 h, 10 µM [3]: 85%

O=C(COc1ccc(C(=O)c2ccccc2Cl)cc1)Nc1cccnc1
activity at 0.1 h, 10 µM [3]: 71%

O=C(COc1ccc(C(=O)c2ccccc2)c(Br)c1)Nc1cccnc1
activity at 0.1 h, 10 µM [3]: 96%

O=C(COc1ccc(C(=O)c2ccccc2Br)cc1)Nc1cnc2ccccc2c1
activity at 0.1 h, 10 µM [3]: 87%

O=C(COc1ccc(C(=O)c2ccc(F)cc2)cc1)Nc1cccnc1
activity at 0.1 h, 10 µM [3]: 65%
